ChEMBL document CHEMBL3507680, “University of Dundee, Gates Library screen for HepG2 cell viability”

Assay: Human HepG2 cell viability assay in 384 well format
Assay type: toxicity, cell-based
Design: dose 125 nL, time 70.5 hour; concentration not given beside the values
Settings: HepG2 cells, read-out: Inhibition

Row | SMILES | cytotoxicity at 70.5 h [%]
1 | O=C(N1CCOCC1)n1cnc2ccccc21 | -11.5
2 | CSc1ccc(C(C(=O)O)N2CCCC2)cc1 (configuration not stated) | -7.97
3 | CO[C@H]1[C@@H]2CC[C@H]1CN(c1nc(C)nc3ccsc13)C2 | 19.4
4 | c1cn(Cc2nnc(C3CCN(C4CCCCC4)CC3)n2C2CC2)cn1 | -1.01
5 | COc1ccc(C2Nc3ccccc3NC3=C2C(=O)NC3)cc1OC (configuration not stated) | -7.99
6 | CCN(Cc1cc(Cl)c(O)c(OC)c1)Cc1nc(COC)no1 | -4.93
7 | CC(=O)c1ccc(F)cc1-c1cc(NCCO)nc2[nH]ccc12 | -0.208
8 | COCC[C@]1(O)CCN(C(=O)C2CCN(C3CCCC3)CC2)C[C@H]1C | -5.71
9 | COc1cc(C)ccc1S(=O)(=O)N[C@H]1CN(C(C)=O)C[C@@H]1C1CC1 | 18.1
10 | Cc1cc(CN2CCN(C(C)C)C(CCO)C2)[nH]n1 (configuration not stated) | 9.92
11 | Cc1ccc(CN2CCN(Cc3nccn3C)[C@H]3CS(=O)(=O)C[C@H]32)o1 | -6.86
12 | CC(C)(CNC(=O)c1ccco1)CNC(=O)c1ccco1 | -1.35
13 | CN(Cc1ccsc1)Cc1ccc(C2CCCCO2)o1 (configuration not stated) | -3.14
14 | N#CC1CCCN(C(=O)Cn2ncc(N3CCCC3)cc2=O)C1 (configuration not stated) | -7.57
15 | C[C@H](c1ccc(Cl)cc1)n1c(C2CC2)n[nH]c1=O | -3.55
16 | CC(C)=CCN1CCN(Cc2nc3ccccc3[nH]2)[C@H]2CS(=O)(=O)C[C@H]21 | -8.69
17 | Cc1nc(-c2cc(F)c3c(c2)CC(CN)O3)c[nH]1 (configuration not stated) | 3.79
18 | CCOCCC(=O)N(Cc1ccncc1)C(C)CC (configuration not stated) | 20.8
19 | OC1CCCOC12CCN(Cc1nnc(-c3cccnc3)o1)CC2 (configuration not stated) | 0.216
20 | CNS(=O)(=O)CCn1cc(-c2cc3c(cc2OC)CCC3)nn1 | -7.97
21 | CN(C)Cc1ccc(C2CCCCN2C(=O)c2cc(=O)[nH]c(=O)[nH]2)cc1 (configuration not stated) | -5.8

Row | SMILES | cytotoxicity at 70.5 h [%]
22 | CS(=O)(=O)c1cnc(CC2CC2)nc1C1CCCNC1 (configuration not stated) | 19.7
23 | CN1CCC2(CCC1=O)CCN(C(=O)Cc1ccc(O)c(F)c1)CC2 | 2.31
24 | CC(=O)c1cc(CN2C[C@@H](N(C)C)[C@H](C(C)C)C2)cs1 | 8.63
25 | O=C(O)CSc1nnc(-c2ccco2)n1-c1ccccc1C(F)(F)F | -4.07
26 | Cc1ccc(Cl)cc1-n1nnnc1C1(N2CCCC2)CCCC1 | -11.5
27 | COc1ccccc1N1CCN(CC[C@H](O)c2ccccc2)CC1=O | -12
28 | CCN1CC2(CCN(C(=O)C(C)Oc3cccc(Cl)c3)CC2)OC1=O (configuration not stated) | -11.6
29 | O=C(CCc1cc(O)no1)N1CCCC(COc2ccccc2F)C1 (configuration not stated) | -20.7
30 | COCCN(C)C[C@@H]1CN(C(=O)c2ccc(O)c(C)c2)C[C@@H]1CO | -2.33
31 | CSc1ncccc1C(=O)N1C[C@H]2CC[C@@H]1CN(C(C)=O)C2 | -6.7
32 | CC1=CC(C)(C)N(CN2C(=O)c3ccccc3C2=O)c2ccc(C)cc21 | 7.06
33 | CC1=CC(C)(C)N(CN2C(=O)c3ccccc3C2=O)c2ccccc21 | 0.789
34 | O=C(O)[C@@H]1CN(Cc2c[nH]c(CC3CCCC3)n2)C[C@H]1c1ccccn1 | 17.2
35 | c1cc(-c2cnccn2)cc(-c2ccn(CCN3CCCCC3)n2)c1 | -7.67
36 | Nc1ncc(C(=O)N2CCC3(CCCO3)CC2)c(-c2ccccc2)n1 | -2.3
37 | Cc1cc(C(=O)N2CCN(C(=O)CC(C)C)[C@@H]3CS(=O)(=O)C[C@@H]32)no1 | -11.9
38 | CC(C)c1nc(CN(C)C(=O)C(O)c2ccc(Cl)cc2)cs1 (configuration not stated) | -0.849
39 | CN(C)CC(Nc1nc(N)nc2c1CCNCC2)c1ccccc1 (configuration not stated) | -18.8
40 | CC1(C)Cc2c(cnn2-c2cccc(F)c2)C(NC2CCSCC2)C1 (configuration not stated) | 9.46
41 | CN1CCC(N(C)C[C@H]2CC[C@@H](Cc3ccc4occc4c3)O2)CC1 | 3.05
42 | COc1cccc([C@H]2CN(C(=O)c3noc4c3CCCC4)C[C@@H]2N)c1 | -3.29
